Experimental data published in US12404244B2, “Pan-KIT kinase inhibitor having quinoline structure and application thereof” (Tarapeutics Science Inc., priority 2018, dated 2025).

Key:
Assay type in all cases: cell-based
TEL-KIT/D820G-BaF3 = assay: Proliferation of TEL-KIT/D820G-BaF3 cells (CCK-8); conditions: Mus musculus; 72 hours, CCK-8; read-out: GI50 TEL-KIT/D820G-BaF3
Text: (§1) Compounds as provided herein were further evaluated for their inhibitory effects on proliferation of cancer cells by testing their effects on growth of cancer cells. In this example the following cells were used: primary mouse B cells BaF3 (purchased from ATCC), GIST-T1 cells of the human gastrointestinal stromal tumor cell line (expressing wild-type KIT gene) (purchased from Cosmo Bio Co., Ltd. (Japan)). The present lab further constructed and used the following: mouse Tel-Kit-BaF3 (stably expressing KIT wild-type kinase), mouse Tel-Kit/T670I-BaF3 (stably expressing KIT T670I mutant kinase), mouse Tel-Kit/V559A-BaF3 (stably expressing KIT V559A mutant kinase), mouse Tel-Kit/V559D-BaF3 (stably expressing KIT V559D mutant kinase), mouse Tel-Kit/V559G-BaF3 (stably expressing KIT V559G mutant kinase), mouse Tel-Kit/V560D-BaF3 (stably expressing KIT V560D mutant kinase), mouse Tel-Kit/L576P-BaF3 (stably expressing KIT L576P mutant kinase), mouse Tel-Kit/V654A-BaF3 (stably expressing KIT V654A mutant kinase), mouse Tel-Kit/V654A/V559D-BaF3 (stably expressing KIT V654A V559D mutant kinase), mouse Tel-Kit/T670E-BaF3 (stably expressing KIT T670E mutant kinase), mouse Tel-Kit/T670I/V559D-BaF3 (stably expressing KIT T670I V559D mutant kinase), mouse Tel-Kit/S709F-BaF3 (stably expressing KIT S709F mutant kinase), mouse Tel-Kit/D816E-BaF3 (stably expressing KIT D816E mutant kinase), mouse Tel-Kit/D816H-BaF3 (stably expressing KIT D816H mutant kinase), mouse Tel-Kit/D820E-BaF3 (stably expressing KIT D820E mutant kinase), mouse Tel-Kit/D820G-BaF3 (stably expressing KIT D820G mutant kinase), mouse Tel-Kit/D820Y-BaF3 (stably expressing KIT D820Y mutant kinase), mouse Tel-Kit/N822K-BaF3 (stably expressing KIT N822K mutant kinase), mouse Tel-Kit/Y823D-BaF3 (stably expressing KIT Y823D mutant kinase), mouse Tel-Kit/A829P-BaF3 (stably expressing KIT A829P mutant kinase), GIST-T1-T670I cells of the human gastrointestinal stromal tumor cell line (expressing KIT-T670I mutant gene). The above cell lines were constructed by: amplifying respectively the sequences of human KIT and various mutant kinase regions of KIT via PCR, inserting the fragments respectively into MSCV-Puro vectors having a N-terminal TEL fragment and/or a NPM fragment and/or a TPR fragment (purchased from Clontech), transfecting mouse BaF3 cells with the vectors by means of retrovirus to obtain stably transfected cells, removing the growth factor IL-3, and thereby eventually obtaining cell lines that depend on the transferred protein KIT or various mutants of KIT. […]

TEL-KIT/V559G-BaF3 = assay: Proliferation of TEL-KIT/V559G-BaF3 cells (CCK-8); conditions: Mus musculus; 72 hours, CCK-8; read-out: GI50 TEL-KIT/V559G-BaF3
Text: as §1

TEL-KIT/S709F-BaF3 = assay: Proliferation of TEL-KIT/S709F-BaF3 cells (CCK-8); conditions: Mus musculus; 72 hours, CCK-8; read-out: GI50 TEL-KIT/S709F-BaF3
Text: as §1

TEL-KIT/V559A-BaF3 = assay: Proliferation of TEL-KIT/V559A-BaF3 cells (CCK-8); conditions: Mus musculus; 72 hours, CCK-8; read-out: GI50 TEL-KIT/V559A-BaF3
Text: as §1

TEL-KIT/V654A-BaF3 = assay: Proliferation of TEL-KIT/V654A-BaF3 cells (CCK-8); conditions: Mus musculus; 72 hours, CCK-8; read-out: GI50 TEL-KIT/V654A-BaF3
Text: as §1

GIST-T1/T670I = assay: Proliferation of GIST-T1/T670I cells (CCK-8); conditions: Homo sapiens, GISTT1; 72 hours, CCK-8; read-out: GI50 GIST-T1/T670I
Text: as §1, with “gene).” for “gene). The above cell lines were constructed by: amplifying respectively the sequences of human KIT and various mutant kinase regions of KIT via PCR, inserting the fragments respectively into MSCV-Puro vectors having a N-terminal TEL fragment and/or a NPM fragment and/or a TPR fragment (purchased from Clontech), transfecting mouse BaF3 cells with the vectors by means of retrovirus to obtain stably transfected cells, removing the growth factor IL-3, and thereby eventually obtaining cell lines that depend on the transferred protein KIT or various mutants of KIT.”
The cells after incubation were detected using CCK-8 (purchased from MedChem Express, Shanghai, China) cell viability assay kit (CCK-8 may be reduced by dehydrogenase in living cells to a highly water-soluble yellow formazan product, and the amount of the resultant formazan is proportional to the number of living cells), the number of living cells were quantified with a microplate reader, and GI50 of the compounds and the control compounds were calculated (the results shown in Table 2 and Table 3).

TEL-KIT/A829P-BaF3 = assay: Proliferation of TEL-KIT/A829P-BaF3 cells (CCK-8); conditions: Mus musculus; 72 hours, CCK-8; read-out: GI50 TEL-KIT/A829P-BaF3
Text: as §1

GI50 (TEL-KIT/D820G-BaF3): 9 nM
GI50 (TEL-KIT/V559G-BaF3): < 0.3 nM
GI50 (TEL-KIT/S709F-BaF3): 17 nM
GI50 (TEL-KIT/V559A-BaF3): 21 nM
GI50 (TEL-KIT/V654A-BaF3): 320 nM
GI50 (TEL-KIT/A829P-BaF3): 22 nM
SMILES: COc1cc2nccc(Oc3ccc(NC(=O)Cc4ccc(Cl)c(C(F)(F)F)c4)cc3)c2cc1OC [Example 2, N-(4-((6,7-dimethoxyquinolin-4-yl)oxy)phenyl)-2-(4-chloro-3-(trifluoromethyl)phenyl)-acetamide]
GI50 (GIST-T1/T670I): 11 nM
